According to patent publication US20250195855A1, “INGESTIBLE DEVICE FOR DELIVERY OF THERAPEUTIC AGENT TO THE GASTROINTESTINAL TRACT” (BIORA THERAPEUTICS, INC., priority 2022, published 2025):

Assays:
[1] = 40 mg bi-weekly dose; cited from earlier work
[2] = parameters: species or system female Yucatan swine; conditions: in vivo
Protocol: The above externally-triggered study was also performed using semaglutide, a glucagon-like-peptide-1 (GLP-1) receptor agonist that stimulates insulin secretion and suppress glucagon release. Devices filled with ˜0.96 mg of semaglutide were administrated by intraduodenal (ID) endoscopic placement and were externally triggered in the proximal small intestine of the female Yucatan swine. Plasma samples were then collected from 0 to 240 hours post-dose. Systemic concentrations of semaglutide were measured using LC-MS-MS to evaluate the PK of semaglutide with the OBDS device via ID administration (animals 1003-ID; 1004-ID; 1005-ID; 1009-ID; 10053-ID and 1055-ID in FIG. 87) compared with the IV control (animal 1015-IV in FIG. 87).
Seven out of eight (7/8) devices were successfully advanced through the pyloric sphincter via endoscopic placement and triggered in the proximal small intestine.

Row | Molecule | bioavailability, subcutaneous route over IV, estimated in human trials [1] [%] | clinical signs before or after dosing [2] | detectable drug levels up to (post-dosing) [2]
1 | adalimumab | 64 |  | 
2 | CC[C@H](C)[C@H](NC(=O)[C@H](Cc1ccccc1)NC(=O)[C@H](CCC(=O)O)NC(=O)[C@H](CCCCNC(=O)COCCOCCNC(=O)COCCOCCNC(=O)CC[C@H](NC(=O)CCCCCCCCCCCCCCCCC(=O)O)C(=O)O)NC(=O)[C@H](C)NC(=O)[C@H](C)NC(=O)[C@H](CCC(N)=O)NC(=O)CNC(=O)[C@H](CCC(=O)O)NC(=O)[C@H](CC(C)C)NC(=O)[C@H](Cc1ccc(O)cc1)NC(=O)[C@H](CO)NC(=O)[C@H](CO)NC(=O)[C@@H](NC(=O)[C@H](CC(=O)O)NC(=O)[C@H](CO)NC(=O)[C@@H](NC(=O)[C@H](Cc1ccccc1)NC(=O)[C@@H](NC(=O)CNC(=O)[C@H](CCC(=O)O)NC(=O)C(C)(C)NC(=O)[C@@H](N)Cc1cnc[nH]1)[C@@H](C)O)[C@@H](C)O)C(C)C)C(=O)N[C@@H](C)C(=O)N[C@@H](Cc1c[nH]c2ccccc12)C(=O)N[C@@H](CC(C)C)C(=O)N[C@H](C(=O)N[C@@H](CCCNC(=N)N)C(=O)NCC(=O)N[C@@H](CCCNC(=N)N)C(=O)NCC(=O)O)C(C)C [semaglutide] |  | No significant clinical signs were observed | up to 10 days
